“And” between values parts separate entries of the source, which are not always exact repeats. Identical values can stand only once.
Assay: molar heat capacity at constant pressure
Details: 101.33 kPa, Crystal 2, Small (less than 1 g) adiabatic calorimetry

O=S(=O)([O-])[O-].[Sr+2] [sulfuric acid, strontium salt (1:1)]
Details	molar heat capacity at constant pressure
145.71 K	68.41 J/K/mol
145.74 K	68.47 J/K/mol
146.11 K	68.55 J/K/mol
148.91 K	69.29 J/K/mol
148.95 K	69.42 J/K/mol
149.31 K	69.49 J/K/mol
150 K	69.86 J/K/mol
152.12 K	70.28 J/K/mol
152.16 K	70.25 J/K/mol
152.52 K	70.41 J/K/mol
155.34 K	71.05 J/K/mol
155.38 K	71.08 J/K/mol
155.74 K	71.27 J/K/mol
158.56 K	71.97 J/K/mol
158.6 K	72 J/K/mol
158.97 K	72.09 J/K/mol
160 K	72.51 J/K/mol
161.8 K	72.79 J/K/mol
161.84 K	72.83 J/K/mol
162.22 K	72.92 J/K/mol
165.05 K	73.58 J/K/mol
165.09 K	73.59 J/K/mol
165.46 K	73.73 J/K/mol
168.3 K	74.28 J/K/mol
168.34 K	74.31 J/K/mol
168.72 K	74.49 J/K/mol
170 K	74.99 J/K/mol
171.55 K	75.15 J/K/mol
171.6 K	75.19 J/K/mol
171.99 K	75.27 J/K/mol
174.82 K	75.93 J/K/mol
174.86 K	75.97 J/K/mol
175.25 K	76.02 J/K/mol
178.09 K	76.68 J/K/mol
178.13 K	76.74 J/K/mol
178.53 K	76.77 J/K/mol
180 K	77.33 J/K/mol
181.37 K	77.42 J/K/mol
181.41 K	77.48 J/K/mol
181.81 K	77.53 J/K/mol
184.66 K	78.14 J/K/mol
184.69 K	78.22 J/K/mol
185.09 K	78.29 J/K/mol
187.96 K	78.91 J/K/mol
187.99 K	78.94 J/K/mol
188.38 K	78.97 J/K/mol
190 K	79.65 J/K/mol
191.26 K	79.72 J/K/mol
191.28 K	79.71 J/K/mol
191.67 K	79.8 J/K/mol
194.56 K	80.51 J/K/mol and 80.47 J/K/mol
194.96 K	80.64 J/K/mol
197.83 K	81.24 J/K/mol
197.85 K	81.22 J/K/mol
198.25 K	81.33 J/K/mol
200 K	81.87 J/K/mol
201.09 K	81.92 J/K/mol
201.14 K	81.8 J/K/mol
201.53 K	81.9 J/K/mol
204.35 K	82.54 J/K/mol
204.42 K	82.41 J/K/mol
204.81 K	82.55 J/K/mol
207.6 K	83.18 J/K/mol
207.7 K	82.95 J/K/mol
208.08 K	83.16 J/K/mol
210 K	83.8 J/K/mol
210.83 K	83.81 J/K/mol
210.94 K	83.69 J/K/mol
211.34 K	83.83 J/K/mol
214.05 K	84.44 J/K/mol
214.18 K	84.34 J/K/mol
214.58 K	84.5 J/K/mol
217.26 K	85.04 J/K/mol
217.41 K	84.95 J/K/mol
217.8 K	85.11 J/K/mol
220 K	85.76 J/K/mol
220.45 K	85.67 J/K/mol
220.61 K	85.61 J/K/mol
221.01 K	85.74 J/K/mol
223.62 K	86.31 J/K/mol
223.8 K	86.22 J/K/mol
224.21 K	86.36 J/K/mol
226.78 K	86.94 J/K/mol
226.98 K	86.85 J/K/mol
227.39 K	86.96 J/K/mol
229.93 K	87.58 J/K/mol
230 K	87.75 J/K/mol
230.13 K	87.48 J/K/mol
230.55 K	87.57 J/K/mol
233.05 K	88.24 J/K/mol
233.27 K	88.13 J/K/mol
233.75 K	88.27 J/K/mol
236.17 K	88.83 J/K/mol
236.39 K	88.63 J/K/mol
236.88 K	88.89 J/K/mol
239.32 K	89.46 J/K/mol
239.54 K	89.39 J/K/mol
239.99 K	89.5 J/K/mol
240 K	89.75 J/K/mol
242.4 K	90.05 J/K/mol
242.63 K	89.95 J/K/mol
243.09 K	90.06 J/K/mol
245.47 K	90.64 J/K/mol
245.71 K	90.56 J/K/mol
246.17 K	90.67 J/K/mol
248.53 K	91.22 J/K/mol
248.77 K	91.15 J/K/mol
249.24 K	91.23 J/K/mol
250 K	91.7 J/K/mol
251.58 K	91.85 J/K/mol
251.81 K	91.78 J/K/mol
252.29 K	91.85 J/K/mol
254.61 K	92.43 J/K/mol
254.84 K	92.37 J/K/mol
255.33 K	92.47 J/K/mol
257.63 K	93 J/K/mol
257.87 K	92.94 J/K/mol
258.36 K	93.06 J/K/mol
260 K	93.66 J/K/mol
260.65 K	93.58 J/K/mol
260.88 K	93.56 J/K/mol
261.38 K	93.65 J/K/mol
263.66 K	94.16 J/K/mol
263.89 K	94.13 J/K/mol
264.39 K	94.26 J/K/mol
266.66 K	94.77 J/K/mol
266.89 K	94.7 J/K/mol
267.4 K	94.85 J/K/mol
269.66 K	95.39 J/K/mol
269.89 K	95.3 J/K/mol
270 K	95.59 J/K/mol
270.4 K	95.47 J/K/mol
272.64 K	95.96 J/K/mol
272.87 K	95.81 J/K/mol
273.15 K	96.15 J/K/mol
273.39 K	95.92 J/K/mol
275.63 K	96.38 J/K/mol
275.85 K	96.25 J/K/mol
276.38 K	96.39 J/K/mol
278.61 K	96.87 J/K/mol
278.83 K	96.75 J/K/mol
279.36 K	96.87 J/K/mol
280 K	97.3 J/K/mol
281.59 K	97.38 J/K/mol
281.8 K	97.23 J/K/mol
282.43 K	97.36 J/K/mol
284.56 K	97.83 J/K/mol
284.76 K	97.73 J/K/mol
285.4 K	97.91 J/K/mol
287.65 K	98.39 J/K/mol
287.81 K	98.24 J/K/mol
288.36 K	98.43 J/K/mol
290 K	98.96 J/K/mol
290.61 K	98.91 J/K/mol
290.76 K	98.75 J/K/mol
291.32 K	98.96 J/K/mol
293.57 K	99.37 J/K/mol
293.71 K	99.22 J/K/mol
294.28 K	99.43 J/K/mol
296.52 K	99.84 J/K/mol
296.64 K	99.69 J/K/mol
297.22 K	99.88 J/K/mol
298.15 K	100.3 J/K/mol
299.46 K	100.34 J/K/mol
299.56 K	100.14 J/K/mol
300 K	100.59 J/K/mol
300.17 K	100.26 J/K/mol
302.4 K	100.79 J/K/mol
302.48 K	100.58 J/K/mol
303.1 K	100.8 J/K/mol
305.33 K	101.19 J/K/mol
305.39 K	101 J/K/mol
306.03 K	101.22 J/K/mol
308.26 K	101.58 J/K/mol
308.3 K	101.41 J/K/mol
308.95 K	101.59 J/K/mol
310 K	102.03 J/K/mol
311.18 K	102.01 J/K/mol
311.19 K	101.81 J/K/mol
311.87 K	101.99 J/K/mol
314.08 K	102.29 J/K/mol
314.09 K	102.44 J/K/mol
314.78 K	102.4 J/K/mol
316.97 K	102.72 J/K/mol
316.99 K	102.82 J/K/mol
317.69 K	102.79 J/K/mol
319.85 K	103.14 J/K/mol
319.89 K	103.15 J/K/mol
320 K	103.44 J/K/mol
320.59 K	103.18 J/K/mol
322.73 K	103.57 J/K/mol
322.78 K	103.57 J/K/mol
